Values of other authors as cited in patent US20220061318A1, “ANTIMICROBIAL PREVENTIVE NETTING” (University of Washington, priority 2020, published 2022).

Settings: photosensitizer, singlet oxygen generation; riboflavin value depends on the test conditions

| Compound | quantum yield |
| --- | --- |
| CN(C)c1ccc2nc3ccc(=[N+](C)C)cc-3sc2c1 [Methylene blue, methylene blue] | 0.52 |
| O=C1OC2(c3ccccc31)c1cc(I)c(O)c(I)c1Oc1c2cc(I)c(O)c1I [erythrosine] | around 0.6 |
